The results in this text go back to US11208642B2, “Microbial syringol utilization” (Alliance for Sustainable Energy, LLC, priority 2018, dated 2021).

What all share (assay type): biochemical
One assay addresses T1, GcoA-F169A (Amycolatopsis sp., UniProt P0DPQ7, F169A/H210Q).
T1 construct: GST (N, cleaved yes); made in house; host or cells: E. coli Rosetta 2 (DE3)
Put plainly: Rate of aromatic substrate disappearance by discontinuous HPLC. The following applies: GcoA-F169A/GcoB, substrate disappearance over time. The protocol:
To address whether guaiacol and/or syringol would serve as substrates of GcoA-F169A, the disappearance of NADH (UV/vis) and aromatic substrate (HPLC) was monitored over time (FIG. 1). The rates of organic substrate and NADH consumption were robust and the same within error, regardless of whether guaiacol or syringol was used (5.3±0.3 μM guaiacol s^−1 μmol GcoA-F169A^−1, 5.8±0.8 μM NADH s^−1 μmol GcoA-F169A-1; 4.1±0.3 μM syringol s^−1 μmol GcoA-F169A^−1, 5.1±0.8 μM NADH s^−1 μmol GcoA-F169A^−1).
HPLC for product identification and specific activity measurement. HPLC was used to verify the O-demethylated product of GcoA-F169A GcoA/GcoB with guaiacol, syringol, or 3MC. In addition, discontinuous HPLC was used to determine the specific activity of aromatic […] disappearance.
Analyte analysis of the above end-point reactions (100 μM guaiacol, syringol, or 3MC, or 200 μM syringol) was performed on an Agilent 1100 LC system (Agilent Technologies) equipped with a G1315B diode array detector (DAD). Each sample and standard was injected at a volume of 10 μL onto a Symmetry C18 column 5 μm, 4.6×150 mm column (Waters). The column temperature was maintained at 30° C. and the buffers used to separate the analytes of interest was 0.01% TFA in water (A)/acetonitrile (B). The separation was carried out using a gradient program of: (A)=99% and (B)=1% at time t=0 min; (A)=99% and (B)=1% at time t=2 min, (A)=50% and (B)=50% at t=8 min; (A)=1% and (B)=99% at t=8.01 min; (A)=99% and (B)=1% at t=10.01 min; (A)=99% and (B)=1% at t=11 min. The flow rate was held constant at 1.5 mL min^−1, resulting in a run time of 11 minutes. DAD wavelengths of 210 and 325 nm were used for analysis of the analytes of interest. […] Integrated intensities vs [standards] were plotted and the resulting standard curves used to quantify the reactants and products.
For specific activity determination, 300 μM guaiacol, syringol, or 3MC were added from 0.1 M DMSO stocks to air saturated buffer (25 mM HEPES, 50 mM NaCl, pH 7.5), with a final volume of 1 mL. The concentration of analyte was measured via the above HPLC method. […]

Assay [1] deals with T2, GcoA-F169A and GcoB (Amycolatopsis sp., UniProt P0DPQ7, F169A/H210Q).
T2 construct: GST (N, cleaved yes); made in house; host or cells: E. coli Rosetta 2 (DE3)
T2 sequence (P0DPQ7 whole entry F169A/H210Q): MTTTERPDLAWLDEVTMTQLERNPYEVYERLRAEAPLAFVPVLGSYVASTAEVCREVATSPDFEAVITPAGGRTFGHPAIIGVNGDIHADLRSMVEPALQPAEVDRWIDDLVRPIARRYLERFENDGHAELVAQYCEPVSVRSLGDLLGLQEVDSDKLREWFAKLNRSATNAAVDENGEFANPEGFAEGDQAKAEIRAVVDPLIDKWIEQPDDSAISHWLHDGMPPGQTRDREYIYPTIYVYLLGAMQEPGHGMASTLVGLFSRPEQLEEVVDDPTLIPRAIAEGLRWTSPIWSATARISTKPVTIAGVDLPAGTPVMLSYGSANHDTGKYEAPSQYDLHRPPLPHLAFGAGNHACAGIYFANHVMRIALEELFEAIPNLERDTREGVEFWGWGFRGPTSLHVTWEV
Put plainly: Uncoupling reactions: H2O2 by Amplex Red/HRP assay referenced to NADH consumed. On the procedure:
(§1) The ^a in Table 3 notes that 0.2 μM GcoA-F169A and GcoB were reacted with 100 μg catalase, 100 or 200 μM NADH, and 100 μM substrate in 25 mM HEPES, 50 mM NaCl, pH 7.5, 25° C., 210 μM O2. Endpoint analyses were done to quantify formaldehyde produced, which was then referenced to NADH consumed. The ^b in Table 3 notes that the same reaction done above was repeated to quantify H2O2 produced using the Amplex Red/HRP assay. The amount of hydrogen peroxide was then referenced to NADH consumed.
Detection of H2O2 via HRP and Amplex Red assay. A colorimetric assay involving horseradish peroxidase (HRP) and Amplex Red was used to quantify H2O2 in the reaction between GcoA-F169A GcoA/GcoB, NADH and guaiacol, syringol, or 3MC.
Detection of H2O2 via horseradish peroxidase (HRP) and Amplex Red assay. The reaction between 100 μM guaiacol or 3MC with 0.2 μM F169A/GcoB and 100 μM NADH in air-saturated buffer (25 mM HEPES, 50 mM NaCl, pH 7.5) was monitored continuously in a quartz cuvette, using the NADH consumption assay described above. The same thing was done for syringol, but with either 100 or 200 μM NADH. When there was no longer any change in the spectra, e.g., the reaction was completed, 100 μL was removed from the cuvette and pipetted into a 96-well microplate. A 5 mL solution containing 50 μL of 10 mM Amplex Red (prepared in DMSO and stored at −20° C.) and 100 μL of 10 U/mL HRP was made up in the above buffer. One hundred μL of this was added to each of the wells with each reaction sample. The plate was incubated in the dark at room temperature for 30 min, at which point the absorbance at 572 nm was recorded by a Varioskan Lux microplate reader (Thermo Scientific). The absorbance was compared to a standard curve with 0-100 μM H2O2 to quantify the amount of peroxide produced in the reactions.

In assay [2] the target is T2, GcoA-F169A and GcoB. Put plainly: Uncoupling reactions: endpoint formaldehyde referenced to NADH consumed. The settings on record: for % Formaldehyde produced: referenced to NADH consumed; for Coupling efficiency: GcoA-F169A-catalyzed reaction. On the procedure: as §1
Formaldehyde determination. A colorimetric assay using tryptophan can be used to quantify the amount of formaldehyde produced in F169 GcoA/B reactions with guaiacol, syringol, or 3MC. 0.2 μM each of F169 GcoA mutants and GcoB were dissolved in air-saturated buffer (25 mM HEPES, 50 mM NaCl) in a cuvette at pH 7.5, 25° C. 100 μg/mL catalase was added to each reaction to capture any H2O2 formed during the uncoupled reaction. Two hundred μM NADH was added and the background rate recorded. One hundred (guaiacol, syringol, or 3MC) or 200 (syringol) μM of substrate was then added and the reaction monitored until there was no more change, due to either substrate, NADH or O2 depletion, whichever occurred first. 200 μL of the reaction was then quenched by adding 200 μL of a 0.1% tryptophan solution in 50% ethanol and 200 μL of 90% sulfuric acid. Upon thorough mixing, 40 μL of 1% FeCl3 was added. The solution was then incubated in a heating block for 90 min at 70° C. After cooling, the absorbance was read at 575 nm and the concentration of formaldehyde was calculated by using ε575 nm=4.2 mM^−1 cm^−1, obtained with formaldehyde as a standard. A negative control included everything but the substrate and was used as a baseline.

T1 sequence (P0DPQ7 whole entry F169A/H210Q): as above

As to `COc1cccc(O)c1O` [3MC, 3-methoxycatechol], the “Rate of organic substrate consumption (HPLC)” value (“Rate” for short) on GcoA-F169A is listed as 2.6±0.3 μM s^−1 μmol GcoA-F169A^−1. Moreover, the “% H2O2 produced” value at GcoA-F169A and GcoB [1] (100 μM substrate + 100 μM NADH) was determined as 17 ± 0.2%. For the same compound, the “% Formaldehyde produced” value on GcoA-F169A and GcoB [2] (100 μM substrate + 100 μM NADH) is 52 ± 7%. For the same compound, on GcoA-F169A and GcoB [2], the “Coupling efficiency” value turned out to be 64±10%.
Consider `COc1ccccc1O` [guaiacol, 2-methoxyphenol], for which, on GcoA-F169A, the “Rate” value is on record as 5.3±0.3 μM s^−1 μmol GcoA-F169A^−1. Also, the “% H2O2 produced” value at GcoA-F169A and GcoB [1] (100 μM substrate + 100 μM NADH) was 3.7 ± 0.6%. The “% Formaldehyde produced” value at GcoA-F169A and GcoB [2] (100 μM substrate + 100 μM NADH) came out at 100 ± 10%. Also, the “Coupling efficiency” value at GcoA-F169A and GcoB [2] stood at 91±8%.
Regarding `COc1cccc(OC)c1O` [syringol, 2,6-dimethoxyphenol], the “Rate” value on GcoA-F169A was 4.1±0.3 μM s^−1 μmol GcoA-F169A^−1. For the same compound, the “% H2O2 produced” value at GcoA-F169A and GcoB [1] (100 μM substrate + 100 μM NADH) was found to be 7.4 ± 0.03%; at GcoA-F169A and GcoB [1] (100 μM substrate + 200 μM NADH) it was 7.9 ± 0.5%. Also, the “% Formaldehyde produced” value worked out at 125 ± 6% on GcoA-F169A and GcoB [2] (100 μM substrate + 100 μM NADH); 91 ± 8% on GcoA-F169A and GcoB [2] (100 μM substrate + 200 μM NADH).
